According to patent publication US6610708B1, “Cyclic amino compounds” (Sankyo Company, Limited, priority 1998, dated 2003):

What was measured:
Human Platelets = assay: Antiaggregatory action in human platelets (ADP-induced aggregation in platelet-rich plasma); format: cell-based; details: human PRP; for inhibition at 10 µg/mL / inhibition at 30 µg/mL / inhibition at 100 µg/mL: Platelet, read-out: Test 1 (% inhibition) of platelet aggregation
Method: Antiaggregatory Action in Human Platelets
Platelet aggregation was measured using an automatic platelet aggregometer (PAM-8C, Mebanix) using the method of G.V.R. Born [Nature, 194, 927-929 ([…])] with a slight modification. Blood was collected from the antecubital vein of healthy volunteers who had not taken any medications for two weeks using 3.8% sodium citrate as an anticoagulant ( 1/9 volumes of blood). Platelet-rich plasma (PRP) was obtained by centrifugation (CR5DL, Hitachi) at 200× g for 15 min at room temperature. Platelet-poor plasma (PPP) was obtained by centrifugation of the remaining blood at 2,000× g for 10 min at room temperature. Platelet counts in PRP were measured by an automatic hematology analyzer (K-1000, Toa Iyo Denshi), and adjusted to 3×10^8 /ml by adding PPP. PRP prepared as described above was used for the platelet aggregation experiment. PRP (0.24 ml) containing a test compound was added to a cuvette and set placed in the platelet aggregometer. After pre-incubation for 1.5 min at 37° C., 0.01 ml of 0.25 mM ADP were added to the cuvette to induce platelet aggregation. Platelet aggregation was monitored for 10 min.
Antiaggregatory action of the test compound was determined as a percent inhibition (%) against platelet aggregation of a control (free of the test compound).

SMILES	inhibition at 10 µg/mL (Human Platelets; 10 μg/ml test compound) [%]	inhibition at 30 µg/mL (Human Platelets; 30 μg/ml test compound) [%]	inhibition at 100 µg/mL (Human Platelets; 100 μg/ml test compound) [%]	melting point [°C]	other results
Cc1ccc([S+]([O-])SC2CCN(C(C(=O)C3CC3)c3ccccc3F)C2)cc1 (stereo not drawn) [Example 14 (b), 1-(α-Cyclopropylcarbonyl-2-fluorobenzyl)-3-(4-methylphenylsulfinylthio)-pyrrolidine]	28.6	64	95.8	–	–
O=C(C1CC1)C(c1ccccc1F)N1CCC(SS(=O)(=O)c2ccc(Cl)cc2)CC1 (stereo not drawn) [Example 10 (b), 4-(4-Chlorophenylsulfonylthio)-1-(α-cyclopropylcarbonyl-2-fluorobenzyl)-piperidine]	35.2	96.2	98.8	–	–
Cc1ccc(S(=O)(=O)SC2CCN(C(C(=O)C3CC3)c3ccccc3F)C2)cc1 (stereo not drawn) [Example 4 (d), 1-(α-Cyclopropylcarbonyl-2-fluorobenzyl)-3-(4-methylphenylsulfonylthio)-pyrrolidine]	30.6	77.6	99.5	–	–
C[S+]([O-])SC1CCN(C(C(=O)C2CC2)c2ccccc2F)CC1 (stereo not drawn) [Example 15, 1-(α-Cyclopropylcarbonyl-2-fluorobenzyl)-4-methylsulfinylthiopiperidine]	–	–	–	105 to 111	–
COC(=O)C(c1ccccc1Cl)N1CCC(SS(=O)(=O)c2ccc(C)cc2)CC1 (stereo not drawn) [Example 2 (d), 1-(2-Chloro-α-methoxycarbonylbenzyl)-4-(4-methylphenylsulfonylthio)-piperidine]	32.8	97.1	98	–	–
O=C(C1CC1)C(c1ccccc1F)N1CCC(SSc2ccccc2[N+](=O)[O-])CC1 (stereo not drawn) [Example 18, 1-(α-Cyclopropylcarbonyl-2-fluorobenzyl)-4-(2-nitrophenyldisulfanyl)-piperidine]	–	–	–	110 to 116	–
COC(=O)C(c1ccccc1F)N1CCC(SS(=O)(=O)c2ccc(C)cc2)CC1 (stereo not drawn) [Example 3 (d), 1-(2-Fluoro-α-methoxycarbonylbenzyl)-4-(4-methylphenylsulfonylthio)-piperidine]	24.4	89.3	99.8	–	–
Cc1ccc(S(=O)(=O)SC2CN(C(C(=O)C3CC3)c3ccccc3F)C2)cc1 (stereo not drawn) [Example 5 (d), 1-(α-Cyclopropylcarbonyl-2-fluorobenzyl)-3-(4-methylphenylsulfonylthiol)-azetidine]	–	–	–	–	Test 1 (% inhibition) of platelet aggregation (Human Platelets; 10 μg/ml test compound): 37.1%; Test 1 (% inhibition) of platelet aggregation (Human Platelets; 30 μg/ml test compound): 98.4%; Test 1 (% inhibition) of platelet aggregation (Human Platelets; 100 μg/ml test compound): 99.6%
O=C(C1CC1)C(c1ccccc1F)N1CCC(SS(=O)(=O)c2ccc(Cl)cc2)CC1 (stereo not drawn) [Example 10, 4-(4-Chlorophenylsulfonylthio)-1-(α-cyclopropylcarbonyl-2-fluorobenzyl)-piperidine]	–	–	–	108 to 116	–
O=C(C1CC1)C(c1ccccc1F)N1CCC(SSc2ccc([N+](=O)[O-])cc2[N+](=O)[O-])CC1 (centres unmarked)	–	–	–	120 to 127	–
O=C(C1CC1)C(c1ccccc1F)N1CCC(SS(=O)(=O)c2ccccc2)CC1 (stereo not drawn) [Example 9, 1-(α-Cyclopropylcarbonyl-2-fluorobenzyl)-4-phenylsulfonylthiopiperidine]	–	–	–	105 to 116	–
Cc1ccc([S+]([O-])SC2CCN(C(C(=O)C3CC3)c3ccccc3F)CC2)cc1 (stereo not drawn) [Example 13 (b), 1-(α-Cyclopropylcarbonyl-2-fluorobenzyl)-4-(4-methylphenylsulfinylthio)-piperidine]	13.3	40	91.8	–	–
C[S+]([O-])SC1CCN(C(C(=O)C2CC2)c2ccccc2F)CC1 (stereo not drawn) [Example 15 (b), 1-(α-Cyclopropylcarbonyl-2-fluorobenzyl)-4-methylsulfinylthiopiperidine]	12.3	28.1	71.1	–	–
COc1ccc(S(=O)(=O)SC2CCN(C(C(=O)C3CC3)c3ccccc3F)CC2)cc1 (stereo not drawn) [Example 12, 1-(α-Cyclopropylcarbonyl-2-fluorobenzyl)-4-(4-methoxyphenylsulfonylthio)piperidine]	–	–	–	113 to 122	–
N[C@@H](CSSC1CCN(C(C(=O)C2CC2)c2ccccc2F)C/C1=C/C(=O)O)C(=O)O (stereo partly drawn) [Example 19, (Z)-4-[(R)-2-Amino-2-carboxyethyldisulfanyl]-3-carboxymethylidene-1-(α-cyclopropylcarbonyl-2-fluorobenzyl)piperidine]	–	–	–	135 to 138	–
Cc1ccc([S+]([O-])SC2CCN(C(C(=O)C3CC3)c3ccccc3F)C2)cc1 (stereo not drawn) [Example 14, 1-(α-Cyclopropylcarbonyl-2-fluorobenzyl)-3-(4-methylphenylsulfinylthio)-pyrrolidine]	–	–	–	87 to 100	–
O=C(C1CC1)C(c1ccccc1F)N1CCC(SS(=O)(=O)c2ccc(F)cc2)CC1 (stereo not drawn) [Example 11 (b), 1-(α-Cyclopropylcarbonyl-2-fluorobenzyl)-4-(4-fluorophenylsulfonylthio)-piperidine]	15.5	98	92.5	–	–
O=C(C1CC1)C(c1ccccc1F)N1CCC(SS(=O)(=O)c2ccc(F)cc2)CC1 (stereo not drawn) [Example 11, 1-(α-Cyclopropylcarbonyl-2-fluorobenzyl)-4-(4-fluorophenylsulfonylthio)-piperidine]	–	–	–	110 to 121	–
Cc1ccc(S(=O)(=O)SC2CCN(C(C(=O)C3CC3)c3ccccc3F)C2)cc1 (stereo not drawn) [Example 4, 1-(α-Cyclopropylcarbonyl-2-fluorobenzyl)-3-(4-methylphenylsulfonylthio)-pyrrolidine]	–	–	–	98 to 106	–
COC(=O)C(c1ccccc1F)N1CCC(SS(=O)(=O)c2ccc(C)cc2)CC1 (stereo not drawn) [Example 3, 1-(2-Fluoro-α-methoxycarbonylbenzyl)-4-(4-methylphenylsulfonylthio)-piperidine]	–	–	–	106 to 109	–
COC(=O)C(c1ccccc1Cl)N1CCC(SS(=O)(=O)c2ccc(C)cc2)CC1 (stereo not drawn) [Example 2, 1-(2-Chloro-α-methoxycarbonylbenzyl)-4-(4-methylphenylsulfonylthio)-piperidine]	–	–	–	100 to 115	–
CCOC(=O)/C=C1\CN(C(C(=O)C2CC2)c2ccccc2F)CCC1SS(=O)(=O)c1ccc(C)cc1 (stereo not drawn) [Example 6, (E)-1-(α-Cyclopropylcarbonyl-2-fluorobenzyl)-3-ethoxycarbonylmethylidene-4-(4-methylphenylsulfonylthio)piperidine]	–	–	–	94 to 103	–
O=C(C1CC1)C(c1ccccc1F)N1CCC(SS(=O)(=O)c2ccccc2)CC1 (stereo not drawn) [Example 9 (b), 1-(α-Cyclopropylcarbonyl-2-fluorobenzyl)-4-phenylsulfonylthiopiperidine]	23.4	97.3	94	–	–
Cc1ccc([S+]([O-])SC2CCN(C(C(=O)C3CC3)c3ccccc3F)CC2)cc1 (stereo not drawn) [Example 13, 1-(α-Cyclopropylcarbonyl-2-fluorobenzyl)-4-(4-methylphenylsulfinylthio)-piperidine]	–	–	–	110 to 118	–
COc1ccc(S(=O)(=O)SC2CCN(C(C(=O)C3CC3)c3ccccc3F)CC2)cc1 (stereo not drawn) [Example 12 (b), 1-(α-Cyclopropylcarbonyl-2-fluorobenzyl)-4-(4-methoxyphenylsulfonylthio)piperidine]	19.2	93.9	100	–	–
